Data: patent US8946290B2, “Combination of selected opioids with muscarine antagonists for treating urinary incontinence” (Gruenenthal GmbH, priority 2001, dated 2015)

System: bladder function
Test: Cystometry on anaesthetized naive rats
Type: in vivo
Details: anaesthetized naive female rats, rate of contractions (micturition events/min)
Method: The cystometric investigation on naive female rats was carried out by the method of Kimura et al. (Kimura et al., 1996, Int. J. Urol. 3:218-227). The abdomen of anaesthetized, ventilated rats is opened up and the ureter is ligated. The urine is drained from the kidneys. A catheter is inserted into the bladder and fixed. […] After stable starting values are reached, the test substance is administered intravenously. An influence on bladder function manifests itself via suppression of the spontaneous contractions.
In the present example, compound A ((+)-(2R,3R)-1-dimethylamino-3-(3-methoxy-phenyl)-2-methyl-pentan-3-ol; hydrochloride) in the dosage of 0.1 mg/kg intravenous was combined with compound B (oxybutynin) in the dosage of 0.03 mg/kg intravenous and the action of this combination was compared with that of the individual substances.

SMILES | Inhibition of the rate of contractions compared with the pretest (0.1 mg/kg i.v.) | Inhibition of the rate of contractions compared with the pretest (0.03 mg/kg i.v.)
CC[C@](O)(c1cccc(OC)c1)[C@H](C)CN(C)C.Cl [Compound A, (+)-(2R,3R)-1-dimethylamino-3-(3-methoxy-phenyl)-2-methyl-pentan-3-ol; hydrochloride] | 21.7% MPE | –
CCN(CC)CC#CCOC(=O)C(O)(c1ccccc1)C1CCCCC1 (centres unmarked) [Compound B, oxybutynin] | – | 10.7% MPE
